# Tested on: milkweed bug, Oncopeltus fasciatus (Dallas)
# Assay: anti-juvenile hormone activity and insecticidal activity against the milkweed bug (treated filter paper, second-instar nymphs)
# Type: in vivo
# Settings: for LD50 (ED50 or LD50; compounds without asterisk, functioned as insecticides): insecticidal activity, mortality to at least 50% of the insects; for LD50 (ED50 or LD50; compounds without asterisk, functioned as insecticides) / ED50 (ED50 or LD50; compounds marked with asterisk, functioned as anti-juvenile hormone): second-instar nymphs, treated filter paper, 70° F, 3 to 4 weeks; for type of action (anti-juvenile hormone or general insecticide): statement in words on Table II; for ED50 (ED50 or LD50; compounds marked with asterisk, functioned as anti-juvenile hormone): anti-juvenile hormone activity (asterisk)
# Method: Compounds were tested for anti-juvenile hormone activity and insecticidal activity against the milkweed bug, Oncopeltus fasciatus (Dallas) as follows: The test compounds were diluted in acetone and impregnated into a filter paper disc by applying 0.6 milliliters and permitting the solvent to completely evaporate. Ten second-instar nymphs of Oncopeltus fasciatus (Dallas) were placed in a petri dish with the treated filter paper. The nymphs were supplied with milkweed seeds and water (by soaking dental cotton in a 4-dram vial cap). All petri dishes were stored at 70° F. The compounds were tested at concentrations ranging from 10 μg/cm^2 of filter paper downwards. The insecticidal or anti-juvenile hormone effect was determined when control insects had developed into normal adults, normally 3 to 4 weeks. The asterisk in the Table signifies that the indicated compound functioned as an anti-juvenilehormone. Compounds not marked with an asterisk functioned as insecticides,resulting in mortality to at least 50% of the insects at the indicated level.
SMILES,"LD50 (ED50 or LD50; compounds without asterisk, functioned as insecticides)",type of action (anti-juvenile hormone or general insecticide),"ED50 (ED50 or LD50; compounds marked with asterisk, functioned as anti-juvenile hormone)"
C#CCOc1ccc2c(c1)OC(C)(C)C=C2 [Compound 1],2 ug/cm^2,function as general insecticides,
CC#CCOc1ccc2c(c1)OC(C)(C)C=C2 [Compound 2],,function as anti-juvenile hormones,0.5 ug/cm^2
"C=CCOc1ccc2c(c1)OC(C)(C)C=C2 [Compound 3, 2,2-dimethyl-7-allyloxy-3-chromene]",,function as anti-juvenile hormones,2 ug/cm^2
C#CCOc1cc2c(cc1OC)OC(C)(C)C=C2 [Compound 4],6 ug/cm^2,function as general insecticides,
C=CCOc1cc2c(cc1OC)OC(C)(C)C=C2 [Compound 5],8 ug/cm^2,function as general insecticides,
C#CCOc1cc2c(cc1OC)C=CC(C)(C)O2 [Compound 6],,function as anti-juvenile hormones,1 ug/cm^2
C=CCOc1cc2c(cc1OC)C=CC(C)(C)O2 [Compound 7],,function as anti-juvenile hormones,0.5 ug/cm^2

# Source: patent US4162326A, “Insect control agents” (Stauffer Chemical Company, priority 1978, dated 1979)
